# What was measured:
# [1] = target: T1, ALDH3A1 (Homo sapiens, UniProt P30838); test: AlDeLuc isoform selectivity assay; type: biochemical; conditions: 2 μM, pre-activated with HCl, 60 min room temperature
# T1 construct: inferred from Ni-NTA purification; made in house; host or cells: E. coli BL21(DE3)
# Protocol: Expression and Purification of ALDH Expression constructs for recombinant human ALDH1A1, ALDH1A2, ALDH1A3, and ALDH2, ALDH3A1, ALDH4A1, and ALDH5A1 were generously provided by Prof. Daria Mochly-Rosen (Stanford, Chemical and Systems Biology). E. coli BL21(DE3) cells with transformed with each of the above constructs. Colonies were selected from an agar plate containing […] ampicillin and grown overnight (37° C., 220 rpm) in LB media containing […] ampicillin. The overnight culture (10 mL) was inoculated into 1000 mL LB supplemented with […] ampicillin. When the O.D. reached ˜0.5, IPTG was added to a final concentration of 1 mM and incubated overnight (30° C., 200 rpm, 18 h). The cells were harvested via centrifugation (4° C., 4,000 rpm, 90 min) and the cell pellets were stored at −80° C. until purification.
# ALDH Isoform Activity Determination. The activity of each isoform of ALDH was confirmed by monitoring the production of NADH at 340 nm when incubated with the most used substrate for that enzyme (i.e., benzaldehyde for ALDH3A1 and propionaldehyde for all other isoforms). Each isoform was diluted with 50 mM triethanolamine (TEA, pH 7.4) to a final concentration of 0.5 μM and placed in a 1 mL quartz cuvette. Prior to measurement, NAD^+ was added to a final concentration of 2.5 mM and the preferred substrate was added to a final concentration of 1 mM. Absorbance spectra was taken from 300 to 500 nm every 30 seconds for 15 minutes. Activity for each enzyme was calculated from the slope of absorbance increase at 340 nm over time.
# AlDeLuc Isoform Selectivity Assay. Activation of AlDeLuc was assessed using the necessary amount of enzyme that gave the activity of 0.5 nmol of substrate turned over/minute. All enzymatic reactions were performed in 50 mM triethanolamine (TEA) buffer (pH 7.4) with 2.5 mM NAD^+. To prepare the probe solution, AlDeLuc was dissolved in DMSO and incubated with 1 M HCl. After an hour, this solution was neutralized with 1 M NaOH, and diluted with PBS. To a clear 24-well plate, TEA buffer, NAD^+, the ALDH isoform, and then AlDeLuc (2 μM) were added sequentially to a final volume of 1 mL. After an hour incubation at room temperature, ATP-MgSO4 (45 μL, prepared by mixing 17.78 mM ATP-Mg and 35.56 mM MgSO4 in a 1:1 ratio in PBS buffer) and luciferase (5 μL, 1 mg/mL in PBS containing 10% glycerol) were added to initiate bioluminescence production. The wells were immediately imaged using the IVIS imaging system in open mode. ROIs were drawn around each well and the signal intensity was quantified using the Living Image Analysis. The signal enhancement was normalized relative to the ALDH2 isoform.
# [2] = test system: 4T1-Luc cells; test: MTT cytotoxicity assay; type: cell-based, murine; conditions: up to the highest concentration tested (100 μM); 2 hours
# Protocol: MTT Cytotoxicity Assay. 48-well plates were seeded with 100,000 cells per well ([…]) and incubated at 37° C. with 5% CO2 for 16 hours (˜75% confluent). Media was removed and fresh RPMI 1640 media with 10% FBS containing 100, 50 25, 12.5, 6.25, 3.13, 1.56, or 0 μM AlDeLuc (1% DMSO final v/v) was added. The media was removed after two hours and replaced with 500 μL of 18:1 mixture of FBS-free RPMI 1640 and (3-(4,5-dimethylthiazol-2-yl)-2,5-diphenyltetrazolium bromide (MT, 5 mg/mL stock in PBS). The cells were incubated for one hour at the same conditions before the media was removed. DMSO (500 μL/well) was added, and the absorbance was read at 555 nm on a microplate reader. Viability was calculated by the absorbance relative to the vehicle control. Values are reported as the mean±standard deviation (n=3).
# [3] = test system: BALB/c mice; test: Evaluation of systemic toxicity of AlDeLuc, H&E staining of organs; type: in vivo; conditions: 0.55 mg/kg systemic (retro-orbital); four hours
# Protocol: Evaluation of Systemic Toxicity of AlDeLuc in BALB c mice. BALB/c mice were anesthetized and administered AlDeLuc or vehicle via retro-orbital injection (0.55 mg/kg, 1:19 v/v DMSO:PBS). After four hours, mice were euthanized, and their organs were harvested, fixed in formalin, and submitted to Veterinary Medicine for Hematoxylin and eosin staining.
# [4] = target: T2, ALDH1A1 (Mus musculus, UniProt P24549); test: Validation of ALDH-mediated activation of AlDeLuc in heterotopic breast cancer model via DEAB inhibition; type: in vivo, BALB/c mice; design: from tissue; host or cells: 4T1-Luc tumours in BALB/c mice; conditions: AlDeLuc alone 0.55 mg/kg; 40 min after injection
# T2 sequence (P24549 1-501): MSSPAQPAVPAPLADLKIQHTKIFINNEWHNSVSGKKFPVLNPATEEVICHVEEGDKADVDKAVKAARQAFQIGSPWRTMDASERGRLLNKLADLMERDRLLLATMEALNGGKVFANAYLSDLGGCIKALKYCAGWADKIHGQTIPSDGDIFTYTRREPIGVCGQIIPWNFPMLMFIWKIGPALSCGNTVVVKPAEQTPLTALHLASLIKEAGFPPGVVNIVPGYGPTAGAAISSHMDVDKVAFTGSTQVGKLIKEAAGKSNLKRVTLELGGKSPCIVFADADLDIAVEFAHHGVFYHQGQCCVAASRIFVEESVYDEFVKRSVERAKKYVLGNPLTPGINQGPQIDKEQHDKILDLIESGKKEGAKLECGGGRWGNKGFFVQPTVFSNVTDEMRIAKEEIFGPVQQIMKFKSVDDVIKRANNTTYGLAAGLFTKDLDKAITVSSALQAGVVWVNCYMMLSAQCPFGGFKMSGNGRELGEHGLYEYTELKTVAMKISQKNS
# Protocol: Validation of ALDH-mediated Activation of AlDeLuc in a Heterotopic Breast Cancer Model via DEAB Inhibition. BALB/c mice bearing 4T1-Luc tumors were anesthetized using isoflurane (1-3% for maintenance; up to 5% for induction) in oxygen from a precision vaporizer. After testing to ensure animals are fully under anesthesia, each mouse was administered AlDeLuc via retro-orbital injection (0.55 mg/kg, 1:19 v/v DMSO:PBS). Images were captured using the IVIS imaging system 40 minutes after injection. Bioluminescence light was captured in open mode (no filters were applied). ROIs were drawn around each tumor and summed for each animal. The signal intensity was quantified using the Living Image Analysis Software. After two days, the same animals were anesthetized and co-administered a solution of AlDeLuc and DEAB (0.55 mg/kg and 93 mg/kg respectively, 1:19 v/v DMSO:PBS). After the allotted 40 minutes, the images were captured using the IVIS imaging system. Bioluminescence was collected in open mode (no filters were applied). ROIS were drawn around each tumor and summed for each animal. The signal intensity was quantified using the Living Image Analysis Software.
# T1 sequence (P30838 whole entry, canonical isoform): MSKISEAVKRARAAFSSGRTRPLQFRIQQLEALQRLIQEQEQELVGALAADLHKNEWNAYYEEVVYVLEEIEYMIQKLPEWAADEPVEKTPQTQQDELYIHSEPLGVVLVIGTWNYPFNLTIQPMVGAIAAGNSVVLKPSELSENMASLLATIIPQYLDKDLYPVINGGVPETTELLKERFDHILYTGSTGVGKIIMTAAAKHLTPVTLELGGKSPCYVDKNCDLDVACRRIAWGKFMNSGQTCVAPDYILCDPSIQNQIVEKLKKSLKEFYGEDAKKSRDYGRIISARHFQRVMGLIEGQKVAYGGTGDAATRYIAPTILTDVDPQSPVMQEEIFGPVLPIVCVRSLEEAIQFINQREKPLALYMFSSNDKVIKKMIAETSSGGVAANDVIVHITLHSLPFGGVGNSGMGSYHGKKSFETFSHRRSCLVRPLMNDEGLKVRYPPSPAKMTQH
smiles,measurement,setting,value
"CCN(CC)c1ccc2nc(C3=N[C@@H](C(OC)OC)CS3)sc2c1 [AlDeLuc, (S)-2-(4-(dimethoxymethyl)-4,5-dihydrothiazol-2-yl)-N,N-diethylbenzo[d]thiazol-6-amine]",bioluminescence,[1],only treatment with ALDH1A1 and luciferase generated significant bioluminescence
same,cell viability (MTT),[2],nontoxic
same,"H&E stains of spleen, kidneys, lungs, heart, liver compared to vehicle animals",[3],indistinguishable
same,total luminescent counts,[4],2.18±0.60×10^4

# Reference: US20250282770A1, “BIOLUMINESCENT PROBES TO TRACK STEM CELLS IN VIVO” (THE BOARD OF TRUSTEES OF THE UNIVERSITY OF ILLINOIS, priority 2024, published 2025)
